Test results from patent US9951226B2, “Compound based on cyanine scaffold for diagnosis sepsis by selectively detect glutathione” (EWHA UNIVERSITY—INDUSTRY COLLABORATION FOUNDATION, priority 2014, dated 2018).

Tests used:
[1] = system: HeLa cells; assay: Detection of intracellular biothiol in HeLa cells, confocal laser scanning microscope; type: cell-based, human; conditions: 10 μM compound
Procedure: HeLa cells (human adenocarcinoma cells, Korea Cell Line Bank) were cultured in RPMI 1640 (Roswell Park Memorial Institute) supplemented with 10% heat-inactivated fetal bovine serum (FBS), 100 U/mL penicillin, and 100 U/mL streptomycin in a 37° C. 5% CO2 incubator. The cells were either treated or not treated with 1 mM of N-methylmaleimide (NMM) known as a thiol blocker for 20 minutes. 100 μM of each amino acid containing thiol group (R—SH) such as cysteine, homocysteine, and glutathione was added thereto. Then, the cells were seeded in 35-mm glass bottomed dishes at the density of 3×10^5 cells/dish in 1640 medium. 24 hours later, 10 μM of the compound prepared in Example 1 was added thereto, followed by culture at 37° C. for 20 minutes. The cells were washed with DPBS (Dulbecco's Phosphate Buffered Saline) twice to eliminate the remaining compound, followed by imaging with confocal laser scanning microscope (Fluoview 1200, Olympus, Japan). At this time, the emitting filter with the excitation wavelength of 635 nm and the band-path (BP) of 655˜755 nm was used.

[2] = Detection of biothiol: absorption and fluorescence spectrum with endogenous amino acids in HEPES buffer; type: biochemical; conditions: 10 μM compound; for absorption strength at 750 nm: HEPES pH 7.4, 10% DMSO, 25° C.; for fluorescence strength at 736 nm: λex=730 nm
Procedure: 10 μM of the compound prepared in Example 1 and 100 μM of each endogenous amino acid (glutathione, cysteine, homocysteine, dithiothreitol, phenylalanine, histidine, glutamine, lysine, glutamate, glycine, serine, alanine, arginine, methionine, tyrosine) were added to HEPES (4-(2-hydroxyethyl)piperazine-1-ethanesulfonic acid) buffer (10 mM, pH=7.4) containing 10% dimethylsulfoxide (DMSO), followed by observation of absorption spectrum presented through UV-vis sepctra (Scinco 3000 spectrophotometer, 1 cm quartz cell) at 25° C.
(§1) The following experiment was performed by the same manner as described in Experimental Example <1-1> except that fluorescence spectrum was observed by using RF-5310/PC fluorescence spectrometer (Shimada, 1 cm quartz cell) instead of observing absorption spectrum via UV-vis sepctra (Scinco 3000 spectrophotometer, 1 cm quartz cell) (λex=730 nm, λem=736 nm, slit:10/10 nm).

[3] = Absorption and fluorescence spectrum according to the concentration of glutathione; type: biochemical; conditions: for absorption signal at 830 nm / fluorescence signal at 780 nm: 10 μM compound
Procedure: (§2) 10 μM of the compound prepared in Example 2 and glutathione were added to HEPES (4-(2-hydroxyethyl)piperazine-1-ethanesulfonic acid) buffer (10 mM, pH=7.4) containing 10% dimethylsulfoxide (DMSO) with raising slowly the concentration of glutathione from 0 to 50 μM, during which the changes of absorption spectrum were observed using UV-vis sepctra (Scinco 3000 spectrophotometer, 1 cm quartz cell) at 25° C.
as §1, with “<4-1>” for “<1-1>”
as §2, with “Example 3” for “Example 2”, “to 100” for “to 50”
as §1, with “<16-1>” for “<1-1>”

[4] = Glutathione selectivity: absorption/fluorescence spectrum with various amino acids in HEPES buffer; type: biochemical
Procedure: 10 μM of the compound prepared in Example 2 was treated to HEPES (4-(2-hydroxyethyl)piperazine-1-ethanesulfonic acid) buffer (10 mM, pH=7.4) containing 10% DMSO and 100 μM of each glutathione, cysteine, homocysteine, dithiothreitol, phenylalanine, histidine, glutamine, lysine, glutamate, glycine, serine, alanine, arginine, methionine, and tyrosine, followed by observation of fluorescence spectrum at 25° C. by using RF-5310/PC fluorescence spectrometer (Shimada, 1 cm quartz cell).
An experiment was performed by the same manner as described in Experimental Example 3 except that the fragment 1 or the fragment 2 was used instead of the compound prepared in Example 2. […] To disclose the reason in relation to the above, the 3-dimensional structure of each of the compound of Example 1, the compound of Example 2, and the fragment 1 or the fragment 2, was investigated along with band-gap.
10 μM of the compound prepared in Example 3 and 100 μM of each endogenous amino acid (alanine, arginine, cysteine, glutamate, glycine, glutathione, homocysteine, histidine, lysine, methionine, serine, and tyrosine) were added to HEPES (4-(2-hydroxyethyl)piperazine-1-ethanesulfonic acid) buffer (10 mM, pH=7.4) containing 10% dimethylsulfoxide (DMSO), followed by observation of absorption spectrum presented through UV-vis sepctra (Scinco 3000 spectrophotometer, 1 cm quartz cell) at 25° C.
as §1, with “<15-1>” for “<1-1>”

[5] = 100 μM amino acids containing thiol group (glutathione, cysteine, homocysteine, dithiothreitol)
[6] = 100 μM other amino acids not-containing thiol group
[7] = glutathione raised from 0 to 100 μM
[8] = 10 μM compound, 100 μM other amino acids except glutathione

SMILES: CCCN1/C(=C/C=C2\CCCC(/C=C/C3=[N+](CCC)c4ccccc4C3(C)C)=C2N2CCN(S(=O)(=O)c3ccc([N+](=O)[O-])cc3[N+](=O)[O-])CC2)C(C)(C)c2ccccc21.[I-] [Example 1, 2-((E)-2-((E)-3-((E)-2-(3,3-dimethyl-1-propylindolium-2-ylidene)ethylidene)-2-(4-(2,4-dinitrophenylsulfonyl)piperazine-1-yl)cyclohex-1-enyl)binyl)-3,3-dimethyl-1-propyl-3H-indolium iodide]
- red fluorescence under confocal laser scanning microscope ([1]; HeLa cells pre-treated with NMM, 100 μM cysteine added): strong red fluorescence was observed
- red fluorescence under confocal laser scanning microscope ([1]; HeLa cells pre-treated with NMM, 100 μM glutathione added): strong red fluorescence was observed
- red fluorescence under confocal laser scanning microscope ([1]; HeLa cells pre-treated with NMM, 100 μM homocysteine added): strong red fluorescence was observed
- red fluorescence under confocal laser scanning microscope ([1]; HeLa cells pre-treated with thiol blocker NMM 1 mM): red fluorescence was not observed
- red fluorescence under confocal laser scanning microscope ([1]; HeLa cells, 20 minutes): strong red fluorescence was detected
- absorption strength at 750 nm [2, 5]: strong absorption strength
- fluorescence strength at 736 nm [2, 5]: strong fluorescence strength
- absorption strength at 750 nm [2, 6]: weak absorption strength
- fluorescence strength at 736 nm [2, 6]: weak fluorescence strength

SMILES: CCCCN1C(=O)c2cccc3c(S(=O)(=O)N4CCN(C5=C(/C=C/C6=[N+](CCC)c7ccccc7C6(C)C)CCC/C5=C\C=C5\N(CCC)c6ccccc6C5(C)C)CC4)ccc(c23)C1=O.[I-] [Example 3, 2-((E)-2-((E)-2-(4-((2-butyl-1,3-dioxo-2,3-dihydro-1H-benzeneisoquinoline-6-yl)sulfonyl)piperazine-1-yl)-3-((E)-2-(3,3-dimethyl-1-propylindolin-2-ylidene)ethylidene)cyclohex-1-en-1-yl)binyl)-3,3-dimethyl-1-propyl-3H-indolium iodide]
- absorption signal at 830 nm ([3]; glutathione not added): strong absorption signal
- fluorescence signal at 780 nm ([3]; glutathione not added): weak fluorescence signal
- absorption signal at 830 nm [3, 7]: getting weaker
- fluorescence signal at 780 nm [3, 7]: getting stronger
- dependence of the reaction on glutathione concentration ([3]; conclusion from absorption and fluorescence spectra): dose-dependently
- fluorescence signal near 780 nm ([4]; 10 μM compound, 100 μM glutathione): strong fluorescence signal
- absorption signal near 830 nm ([4]; 10 μM compound, 100 μM glutathione, HEPES pH 7.4, 10% DMSO, 25° C.): weak absorption signal
- absorption signal at 830 nm [4, 8]: strong absorption signal
- fluorescence signal at 780 nm [4, 8]: weak fluorescence signal

SMILES: CCCN1/C(=C/C=C2\CCCC(/C=C/C3=[N+](CCC)c4ccccc4C3(C)C)=C2N2CCNCC2)C(C)(C)c2ccccc21 [fragment 2, 2-((E)-2-((E)-3-((E)-2-(3,3-dimethyl-1-propylindolin-2-ylidene)ethylidene)-2-(piperazine-1-yl)cyclohex-1-enyl)binyl)-3,3-dimethyl-1-propyl-3H-indolium iodide]
- changes in absorption or fluorescence spectrum (capacity of detecting glutathione) ([4]; same manner as Experimental Example 3, fragment instead of Example 2): no changes in absorption or fluorescence spectrum were detected
